Reference: US20130337564A1, “Treatment of Pluripotent Cells” (Janssen Biotech, Inc., priority 2012, published 2013)

Legend:
Assay type in all cases: cell-based
[1] = system: cells expressing pluripotency markers derived from human embryonic stem cells; experiment: MTS viability (toxicity) assay of cells expressing pluripotency markers; design: Raw data (duplicate), first replicate / Average: unit not given here; conditions: for Raw data (duplicate), first replicate / Raw data (duplicate), second replicate: MTS viability assay raw reading; for Raw data (duplicate), first replicate: replicate 1; for Raw data (duplicate), second replicate: replicate 2; for Average: average of duplicate MTS raw readings
Procedure: Derivation and maintenance of cells expressing pluripotency makers was conducted as has been described in Example 2. Cells were grown in DMEM:F12 supplemented with 2% FCS (Invitrogen), 100 ng/ml Activin A, 20 ng/ml Wnt-3a, and 50 ng/ml IGF (R&D Biosystems). Cells were seeded at a density of 10,000 cells/cm^2 on Falcon polystyrene flasks and grown in monolayer culture at 37° C., 5% CO2, low oxygen. After reaching 60-70% confluence, cells were passed by washing the monolayer with PBS and incubating with TrypLE (Invitrogen) for 3-5 minutes to allow detachment and single cell dispersal.
Screening was conducted using test compounds from a proprietary library of small molecules selected for their ability to inhibit GSK-3B enzyme activity. Compounds from this library were made available as 1 mM stocks, in a 96-well plate format in 50 mM HEPES, 30% DMSO. For assay, cells expressing pluripotency markers were washed, counted, and plated in normal culture medium at a seeding density of 20,000 cells per well in 96-well clear-bottom, dark-well plates (Costar). This seeding density was previously determined to yield optimal monolayer formation in overnight culture. On the following day, culture medium was removed, cell monolayers were rinsed three times with PBS, and test compounds were added to the wells in 80 μl aliquots, each diluted into assay medium at a final assay concentration of 10 μM. On day 2 of the assay, medium was removed from each well and replaced with a fresh aliquot of test compounds diluted into assay medium. Assay medium on days 1 and 2 of culture consisted of DMEM:F12 supplemented with 0.5% FCS and 100 ng/ml Activin A. On days 3 and 4 of culture, medium was removed from each well and replaced with DMEM:F12 supplemented with 2% FCS and 100 ng/ml Activin A (no test compound). On day 4 of assay, 15 μl of MTS (Promega) was added to each well and plates were incubated at 37° C. for 1.5 to 4 hours prior to reading optical density at 490 nm on a SpectraMax (Molecular Devices) instrument. Statistical measures consisting of mean, standard deviation, and coefficient of variation were calculated for each duplicate set. Toxicity was calculated for each test well relative to a positive control (wells treated with Activin A and Wnt3a on days 1 and 2 of culture).
A larger proportion of the compounds have minimal or no measurable toxicity in this cell-based assay.
A small panel of select compounds was repeat tested over a narrow dose titration range, again using cells expressing pluripotency markers in a similar assay as described above.

[2] = system: human embryonic stem cells (H9 line); experiment: High content screening assay: cell number (proliferative response)
Procedure: (§1) Maintenance of human embryonic stem cells (H9 line) was conducted as described in Example 1. Colonies of cells were maintained in an undifferentiated, pluripotent state with passage on average every four days. Passage was performed by exposing cell cultures to a solution of collagenase (1 mg/ml; Sigma-Aldrich) for 10 to 30 minutes at 37° C. followed by gentle scraping with a pipette tip to recover cell clusters. Clusters were allowed to sediment by gravity, followed by washing to remove residual collagenase. Cell clusters were split at a 1:3 ratio for routine maintenance culture or a 1:1 ratio for immediate assay. The human embryonic stem cell lines used were maintained at passage numbers less than passage 50 and routinely evaluated for normal karyotypic phenotype and absence of mycoplasma contamination.
(§2) Cell clusters used in the assay were evenly resuspended in normal culture medium and plated onto MATRIGEL-coated 96-well Packard VIEWPLATES (PerkinElmer) in volumes of […]. MEF conditioned medium supplemented with 8 ng/ml bFGF was used for initial plating and recovery. Daily feeding was conducted by aspirating spent culture medium from each well and replacing with an equal volume of fresh medium. Plates were maintained at 37° C., 5% CO2 in a humidified box throughout the duration of assay.
(§3) Screening was conducted using test compounds from a proprietary library of small molecules selected for their ability to inhibit GSK-3B enzyme activity. Compounds from this library were made available as 1 mM stocks, in a 96-well plate format in 50 mM HEPES, 30% DMSO. Screening compounds were tested in triplicate or duplicate sets. Primary screening assays were initiated by aspirating culture medium from each well followed by three washes in PBS to remove residual growth factors and serum. Test volumes of 80 to 100 μl per well were added back containing DMEM:F12 base medium (Invitrogen) supplemented with 0.5% FCS (HyClone) and 100 ng/ml activin A (R&D Biosystems) plus 10 μM test compound. Positive control wells contained the same base medium, substituting 10-20 ng/ml Wnt3a (R&D Biosystems) for the test compound. Negative control wells contained base medium with 0.5% FCS and activin A alone (AA only) or alternatively, 0.5% FCS without activin A or Wnt3a (no treatment). Wells were aspirated and fed again with identical solutions on day 2 of assay. On days 3 and 4, all assay wells were aspirated and converted to DMEM:F12 supplemented with 2% FCS and 100 ng/ml activin A (without test compound or Wnt3a); parallel negative control wells were maintained in DMEM:F12 base medium with 2% FCS and activin A (AA only) or alternatively, 2% FCS without activin A (no treatment).
(§4) At the end of culture, cells in 96-well plates were fixed with 4% paraformaldehyde at room temperature for 20 minutes, washed three times with PBS, and then permeabilized with 0.5% Triton X-100 for 20 minutes at room temperature. Alternatively, cells were fixed with ice cold 70% ethanol overnight at −20° C., washed three times with PBS, and then permeabilized with Triton X-100 for 5 minutes at 4° C. After fixing and permeabilizing, cells were washed again three times with PBS and then blocked with 4% chicken serum (Invitrogen) in PBS for 30 minutes at room temperature. Primary antibodies (goat anti-human Sox17 and goat anti-human HNF-3beta; R&D Systems) were diluted 1:100 in 4% chicken serum and added to cells for one hour at room temperature. Alexa Fluor 488 conjugated secondary antibody (chicken anti-goat IgG; Molecular Probes) was diluted 1:200 in PBS and added after washing the cells three times with PBS. To counterstain nuclei, 5 mM Draq5 (Alexis Biochemicals) was added for five minutes at room temperature. Cells were washed once with PBS and left in […] PBS for imaging.
(§5) Cells were imaged using an IN Cell Analyzer 1000 (GE Healthcare) utilizing the 51008bs dichroic for cells stained with Draq5 and Alexa Fluor 488. […]

[3] = system: Sox17 expression in human embryonic stem cells (H9 line); experiment: High content screening assay: Sox17 protein expression (differentiation); conditions: for SOX-17 Expression Fold over Wnt 3a/AA control: total intensity normalised to Wnt 3a/AA control
Procedure: as §1, §2, §3, §4, §5

[4] = system: HNF-3beta expression in human embryonic stem cells (H9 line); experiment: High content screening assay: HNF-3beta protein expression (differentiation); conditions: for HNF-3b Expression Fold over Wnt 3a/AA control: total intensity normalised to Wnt 3a/AA control
Procedure: as §1, §2, §3, §4, §5

[5] = viability of cells expressing pluripotency markers, relative to control
[6] = 10 μM test compound with 100 ng/ml activin A on days 1-2, H9, total cell number by IN Cell Analyzer, strong and moderate hits
[7] = cell number in the wells analysed for HNF-3b expression
[8] = cell number in the wells analysed for HNF-3b expression, normalised to Wnt 3a/AA control
[9] = cell number in the wells analysed for SOX-17 expression
[10] = cell number in the wells analysed for SOX-17 expression, normalised to Wnt 3a/AA control
[11] = 10 μM test compound with 100 ng/ml activin A on days 1-2, H9, total intensity by IN Cell Analyzer, strong and moderate hits

Structure (SMILES) | Raw data (duplicate), first replicate [1] | Raw data (duplicate), second replicate [1] | Average [1] | % Control [1, 5] | Proliferative Response Fold over Wnt 3a/AA control [2, 6] | Proliferative Response Total cells [2, 7] | Proliferative Response Fold over Wnt 3a/AA control [2, 8] | Proliferative Response Total cells [2, 9] | Proliferative Response Fold over Wnt 3a/AA control [2, 10] | SOX17 Expression, Fold over Wnt 3a/AA control [3, 11] | SOX-17 Expression Total Intensity [3] | SOX-17 Expression Fold over Wnt 3a/AA control [3] | HNF3β Expression, Fold over Wnt 3a/AA control [4, 11] | HNF-3b Expression Total Intensity [4] | HNF-3b Expression Fold over Wnt 3a/AA control [4] | viability at 10 µM ([1]; Homo sapiens, Embryonic stem cell, viability of cells expressing pluripotency markers, relative to control) | fold induction at 10 µM ([2]; Homo sapiens, Embryonic stem cell, 10 μM test compound with 100 ng/ml activin A on days 1-2, H9, total cell number by IN Cell Analyzer, strong and moderate hits, read-out: Proliferative Response, Fold over Wnt 3a/AA control) | fold induction at 10 µM ([3]; Homo sapiens, Embryonic stem cell, 10 μM test compound with 100 ng/ml activin A on days 1-2, H9, total intensity by IN Cell Analyzer, strong and moderate hits, read-out: SOX17 Expression, Fold over Wnt 3a/AA control) | fold induction at 10 µM ([4]; Homo sapiens, Embryonic stem cell, 10 μM test compound with 100 ng/ml activin A on days 1-2, H9, total intensity by IN Cell Analyzer, strong and moderate hits, read-out: HNF3β Expression, Fold over Wnt 3a/AA control)
O=C1NC(=O)C2=C1c1cn(c3ncccc13)CCOCCOCCOCCOCCn1cc2c2cccnc21 [Compound 6, 10,11,13,14,16,17,19,20,22,23-Decahydro-1H-9,4:24,29-di(metheno)dipyrido[2,3-n:3′,2′-t]pyrrolo[3,4-q][1,4,7,10,13,22]tetraoxadiazacyclotetracosine-1,3(2H)-dione] | 0.706 | 0.672 | 0.689 | 83.9% | 1.9264 Fold over Wnt 3a/AA control | 9728 | 1.926 fold | 9964.5 | 1.25 fold | 0.9706 Fold over Wnt 3a/AA control | 363855000 | 0.9706 fold | 1.3832 Fold over Wnt 3a/AA control | 635655000 | 1.3832 fold | – | – | – | –
CN(C)CCCn1nc(C2=C(c3cn(-c4cccc5ccccc45)c4ccccc34)C(=O)NC2=O)c2ccccc21 [Compound 8] | 0.165 | 0.154 | 0.159 | – | – | 5096 | – | 5706.5 | – | – | 319930000 | – | – | 341360000 | – | 5.2% | 1.01 | 0.853 | 0.743
COCCN1CCOCCn2cc(c3ccccc32)C2=C(C(=O)NC2=O)c2nn(c3ccccc23)CCOCC1 [Compound 10, 11-(2-Methoxyethyl)-6,7,10,11,12,13,15,16-octahydro-9H,23H-5,26-(azeno)-17,22-(metheno)dibenzo[k,q]pyrrolo[3,4-n][1,7,4,10,19]dioxatriazacyclohenicosine-23,25(24H)-dione] | 0.601 | 0.620 | 0.611 | 72.2% | 0.8926 Fold over Wnt 3a/AA control | 4507 | 0.8926 fold | 4645.5 | 0.5829 fold | 0.6864 Fold over Wnt 3a/AA control | 257295000 | 0.6864 fold | 0.6803 Fold over Wnt 3a/AA control | 312605000 | 0.6803 fold | – | – | – | –
O=C1CCCCn2cc(c3cccnc32)C2=C(C(=O)NC2=O)c2cn(c3ncccc23)CCCC1 [Compound 11, 8,9,11,12,13,14-Hexahydro-6H,21H-5,24:15,20-di(metheno)dipyrido[2,3-b:3′,2′-h]pyrrolo[3,4-e][1,10]diazacyclononadecine-10,21,23(7H,22H)-trione] | 0.743 | 0.638 | 0.691 | 84.1% | 0.6025 Fold over Wnt 3a/AA control | 3043 | 0.6025 fold | 2892.5 | 0.363 fold | 0.5686 Fold over Wnt 3a/AA control | 213165000 | 0.5686 fold | 0.5866 Fold over Wnt 3a/AA control | 269570000 | 0.5866 fold | – | – | – | –
